# Data reported in ChEMBL document CHEMBL4229492, “Design, Synthesis, and Biological Evaluation of Novel 7-[(3 aS,7 aS)-3 a-Aminohexahydropyrano[3,4- c]pyrrol-2(3 H)-yl]-8-methoxyquinolines with Potent Antibacterial Activity against Respiratory Pathogens” (J Med Chem, 2018).
# Tested on: Streptococcus pyogenes
# Assay: Antibacterial activity against Streptococcus pyogenes ATCC 12344 after 18 hrs by two-fold microbroth dilution method
# Format: functional
# Details: ATCC 12344, 18 h
row,Structure (SMILES),MIC
1,C[C@H]1COc2c(N3CCN(C)CC3)c(F)cc3c(=O)c(C(=O)O)cn1c23.C[C@H]1COc2c(N3CCN(C)CC3)c(F)cc3c(=O)c(C(=O)O)cn1c23.O [LEVOFLOXACIN],0.39 µg/mL

# Tested on: Staphylococcus aureus
# Assay: Antibacterial activity against methicillin-resistant Staphylococcus aureus after 18 hrs by two-fold microbroth dilution method
# Format: functional
# Details: Staphylococcus aureus, 18 h
Structure (SMILES),MIC50,MIC90
C[C@H]1COc2c(N3CCN(C)CC3)c(F)cc3c(=O)c(C(=O)O)cn1c23.C[C@H]1COc2c(N3CCN(C)CC3)c(F)cc3c(=O)c(C(=O)O)cn1c23.O [LEVOFLOXACIN],0.5 µg/mL,8 µg/mL

# Same assay, conditions: Staphylococcus aureus, 18 h; read-out: MIC
row,Structure (SMILES),MIC
1,C[C@H]1COc2c(N3CCN(C)CC3)c(F)cc3c(=O)c(C(=O)O)cn1c23.C[C@H]1COc2c(N3CCN(C)CC3)c(F)cc3c(=O)c(C(=O)O)cn1c23.O [LEVOFLOXACIN],0.25 to 64 µg/mL

# Tested on: not listed separately
# Assay: AUC (0 to 24 hrs) in cynomolgus monkey serum at 5 mg/kg, po
# Format: ADME, organism-based, Macaca fascicularis
# Set-up: time < 24 hr, dose 5 mg/kg, route oral
# Details: not given
row,Structure (SMILES),AUC(0-t) at 24 h
1,C[C@H]1COc2c(N3CCN(C)CC3)c(F)cc3c(=O)c(C(=O)O)cn1c23.C[C@H]1COc2c(N3CCN(C)CC3)c(F)cc3c(=O)c(C(=O)O)cn1c23.O [LEVOFLOXACIN],15200 ng·h/mL

# Tested on: Streptococcus pneumoniae
# Assay: Antibacterial activity against penicillin-resistant Streptococcus pneumoniae 033806 after 18 hrs by two-fold microbroth dilution method
# Format: functional
# Details: Streptococcus pneumoniae, 033806, 18 h
row,Structure (SMILES),MIC
1,C[C@H]1COc2c(N3CCN(C)CC3)c(F)cc3c(=O)c(C(=O)O)cn1c23.C[C@H]1COc2c(N3CCN(C)CC3)c(F)cc3c(=O)c(C(=O)O)cn1c23.O [LEVOFLOXACIN],1.56 µg/mL

# Tested on: Staphylococcus aureus
# Assay: Antibacterial activity against levofloxacin and methicillin-resistant Staphylococcus aureus 890325-1 after 18 hrs by two-fold microbroth dilution method
# Format: functional
# Details: 890325-1, 18 h
row,Structure (SMILES),MIC
1,C[C@H]1COc2c(N3CCN(C)CC3)c(F)cc3c(=O)c(C(=O)O)cn1c23.C[C@H]1COc2c(N3CCN(C)CC3)c(F)cc3c(=O)c(C(=O)O)cn1c23.O [LEVOFLOXACIN],6.25 µg/mL

# Tested on: Mus musculus
# Assay: Toxicity in Slc:ddY mouse assessed as induction of convulsion at 15 ug/5 uL/mouse administered intracisternally 30 mins after 400 mg/kg, po BPAA dosing and measured over 30 mins post dose
# Format: organism-based
# Details: in vivo, 0.5 h
row,Structure (SMILES),Activity
1,C[C@H]1COc2c(N3CCN(C)CC3)c(F)cc3c(=O)c(C(=O)O)cn1c23.C[C@H]1COc2c(N3CCN(C)CC3)c(F)cc3c(=O)c(C(=O)O)cn1c23.O [LEVOFLOXACIN],Toxic

# Biological target: Albumin (Homo sapiens, UniProt P02768)
# Sequence (P02768 whole entry): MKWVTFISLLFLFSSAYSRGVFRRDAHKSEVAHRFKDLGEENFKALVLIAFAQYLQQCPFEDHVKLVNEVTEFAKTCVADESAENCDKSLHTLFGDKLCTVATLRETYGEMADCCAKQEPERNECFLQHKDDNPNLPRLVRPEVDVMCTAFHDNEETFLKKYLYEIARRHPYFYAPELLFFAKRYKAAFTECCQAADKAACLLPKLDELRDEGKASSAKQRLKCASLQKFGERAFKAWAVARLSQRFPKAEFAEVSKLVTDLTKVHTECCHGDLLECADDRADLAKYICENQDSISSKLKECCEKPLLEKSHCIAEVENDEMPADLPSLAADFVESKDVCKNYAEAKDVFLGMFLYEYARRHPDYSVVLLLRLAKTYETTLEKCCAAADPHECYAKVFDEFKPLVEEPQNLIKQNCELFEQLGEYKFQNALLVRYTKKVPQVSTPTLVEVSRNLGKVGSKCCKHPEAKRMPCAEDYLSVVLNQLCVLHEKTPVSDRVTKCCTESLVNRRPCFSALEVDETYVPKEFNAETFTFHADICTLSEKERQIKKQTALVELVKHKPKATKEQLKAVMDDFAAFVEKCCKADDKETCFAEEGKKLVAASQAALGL
# Assay: Binding affinity to human serum albumin after 60 mins at 37 degC by ultrafiltration-based LC-MS analysis
# Format: ADME
# Details: read-out: PB (converted)
row,Structure (SMILES),fraction unbound at 1 h
1,C[C@H]1COc2c(N3CCN(C)CC3)c(F)cc3c(=O)c(C(=O)O)cn1c23.C[C@H]1COc2c(N3CCN(C)CC3)c(F)cc3c(=O)c(C(=O)O)cn1c23.O [LEVOFLOXACIN],0.86

# Tested on: Staphylococcus aureus
# Assay: Antibacterial activity against Staphylococcus aureus SMITH after 18 hrs by two-fold microbroth dilution method
# Format: functional
# Details: not given
row,Structure (SMILES),MIC
1,C[C@H]1COc2c(N3CCN(C)CC3)c(F)cc3c(=O)c(C(=O)O)cn1c23.C[C@H]1COc2c(N3CCN(C)CC3)c(F)cc3c(=O)c(C(=O)O)cn1c23.O [LEVOFLOXACIN],0.1 µg/mL

# Tested on: not listed separately
# Assay: AUC (0 to 8 hrs) in cynomolgus monkey serum at 10 mg/kg, iv
# Format: ADME, organism-based, Macaca fascicularis
# Set-up: time < 8 hr, dose 10 mg/kg, route intravenous
# Details: not given
row,Structure (SMILES),AUC(0-t) at 8 h
1,C[C@H]1COc2c(N3CCN(C)CC3)c(F)cc3c(=O)c(C(=O)O)cn1c23.C[C@H]1COc2c(N3CCN(C)CC3)c(F)cc3c(=O)c(C(=O)O)cn1c23.O [LEVOFLOXACIN],15500 ng·h/mL

# Tested on: Escherichia coli
# Assay: Antibacterial activity against Escherichia coli 5-037042'98 harboring gyrase A Asp87Gly mutation after 18 hrs by two-fold microbroth dilution method
# Format: functional
# Details: 5-037042'98, 18 h
row,Structure (SMILES),MIC
1,C[C@H]1COc2c(N3CCN(C)CC3)c(F)cc3c(=O)c(C(=O)O)cn1c23.C[C@H]1COc2c(N3CCN(C)CC3)c(F)cc3c(=O)c(C(=O)O)cn1c23.O [LEVOFLOXACIN],0.1 µg/mL

# Tested on: Streptococcus pneumoniae
# Assay: Antibacterial activity against penicillin-susceptible Streptococcus pneumoniae J41 after 18 hrs by two-fold microbroth dilution method
# Format: functional
# Details: J41, 18 h
row,Structure (SMILES),MIC
1,C[C@H]1COc2c(N3CCN(C)CC3)c(F)cc3c(=O)c(C(=O)O)cn1c23.C[C@H]1COc2c(N3CCN(C)CC3)c(F)cc3c(=O)c(C(=O)O)cn1c23.O [LEVOFLOXACIN],1.56 µg/mL

# Tested on: Mus musculus
# Assay: Toxicity in Slc:ddY mouse assessed as induction of convulsion at 5 ug/5 uL/mouse administered intracisternally and measured over 30 mins post dose
# Format: organism-based
# Details: in vivo, other, 0.5 h
row,Structure (SMILES),Activity
1,C[C@H]1COc2c(N3CCN(C)CC3)c(F)cc3c(=O)c(C(=O)O)cn1c23.C[C@H]1COc2c(N3CCN(C)CC3)c(F)cc3c(=O)c(C(=O)O)cn1c23.O [LEVOFLOXACIN],Non-Toxic

# Tested on: Bacillus spizizenii
# Assay: Antibacterial activity against Bacillus subtilis ATCC 6633 after 18 hrs by two-fold microbroth dilution method
# Format: functional
# Details: ATCC 6633, 18 h
row,Structure (SMILES),MIC
1,C[C@H]1COc2c(N3CCN(C)CC3)c(F)cc3c(=O)c(C(=O)O)cn1c23.C[C@H]1COc2c(N3CCN(C)CC3)c(F)cc3c(=O)c(C(=O)O)cn1c23.O [LEVOFLOXACIN],0.05 µg/mL

# Tested on: not listed separately
# Assay: Metabolic stability in human microsomes at 1 uM assessed as compound remaining after 30 mins
# Format: ADME, Microsome
# Details: read-out: Stability
row,Structure (SMILES),"remaining at 0.5 h, 1 µM"
1,C[C@H]1COc2c(N3CCN(C)CC3)c(F)cc3c(=O)c(C(=O)O)cn1c23.C[C@H]1COc2c(N3CCN(C)CC3)c(F)cc3c(=O)c(C(=O)O)cn1c23.O [LEVOFLOXACIN],95%

# Tested on: Escherichia coli
# Assay: Antibacterial activity against quinolone-resistant Escherichia coli DNS5101 after 18 hrs by two-fold microbroth dilution method
# Format: functional
# Details: DNS5101, 18 h
row,Structure (SMILES),MIC
1,C[C@H]1COc2c(N3CCN(C)CC3)c(F)cc3c(=O)c(C(=O)O)cn1c23.C[C@H]1COc2c(N3CCN(C)CC3)c(F)cc3c(=O)c(C(=O)O)cn1c23.O [LEVOFLOXACIN],> 6.25 µg/mL
